US4540688A, “β-Lactam antibiotics” (Beecham Group p.l.c., priority 1982, dated 1985)

Key:
Format in all cases: cell-based
[1] = tested on: E. cloacae N1; assay: Antibacterial in vitro activity (MIC), E. cloacae N1; conditions: Enterobacter cloacae
[2] = tested on: Ps. aeruginosa Dalgleish; assay: Antibacterial in vitro activity (MIC), Ps. aeruginosa Dalgleish; conditions: Pseudomonas aeruginosa; Ps. aeruginosa Dalgleish 10^-2
[3] = tested on: E. coli JT425; assay: Antibacterial in vitro activity (MIC), E. coli JT425; conditions: Escherichia coli
[4] = tested on: P. mirabilis C977; assay: Antibacterial in vitro activity (MIC), P. mirabilis C977; conditions: Proteus mirabilis
[5] = tested on: K. aerogenes A; assay: Antibacterial in vitro activity (MIC), K. aerogenes A; conditions: Klebsiella aerogenes
[6] = tested on: E. coli ESS; assay: Antibacterial in vitro activity (MIC), E. coli ESS; conditions: Escherichia coli
[7] = tested on: E. coli JT4; assay: Antibacterial in vitro activity (MIC), E. coli JT4; conditions: Escherichia coli
[8] = tested on: N. catarrhalis 1502; assay: Antibacterial in vitro activity (MIC), N. catarrhalis 1502
[9] = tested on: E. coli NCTC 10418; assay: Antibacterial in vitro activity (MIC), E. coli NCTC 10418; conditions: Escherichia coli, NCTC10418
[10] = tested on: S. marcesens US32; assay: Antibacterial in vitro activity (MIC), S. marcesens US32
[11] = tested on: S. pyogenes CN10; assay: Antibacterial in vitro activity (MIC), S. pyogenes CN10; conditions: Streptococcus pyogenes
[12] = tested on: Ps. aeruginosa NCTC 10662; assay: Antibacterial in vitro activity (MIC), Ps. aeruginosa NCTC 10662; conditions: Pseudomonas aeruginosa
[13] = tested on: P. rettgeri; assay: Antibacterial in vitro activity (MIC), P. rettgeri; conditions: Providencia rettgeri

## CCN1CCN(C(=O)N[C@@H](C(=O)N[C@@H]2C(=O)N3[C@@H](C(=O)O)CS[C@H]23)c2ccc(O)c(O)c2)C(=O)C1=O [Example 3, Sodium 6,β[D-2-(4-ethyl-2,3-dioxopiperazine-1-carbonylamino)-2-(3,4-dihydroxyphenyl)]acetamidobisnorpenicillanate]
[1]
  MIC: 500 µg/mL
[2]
  MIC: 2500 µg/mL
[3]
  MIC: 50 µg/mL
[4]
  MIC: 100 µg/mL
[5]
  MIC: 50 µg/mL
[6]
  MIC: 20 µg/mL
[7]
  MIC: 1000 µg/mL
[8]
  MIC: 20 µg/mL
[9]
  MIC: 20 µg/mL
[10]
  MIC: 200 µg/mL
[11]
  MIC: 500 µg/mL
[12]; NCTC10662, Ps. aeruginosa NCTC 10662
  MIC: 1000 µg/mL
[12]; NCTC10662, Ps. aeruginosa NCTC 10662 10^-2
  MIC: 100 µg/mL
[13]
  MIC: 200 µg/mL
